“Also recorded” adds a separate entry of the source.
What was measured:
[1] = tested on: cultured bovine blood-brain barrier endothelial cells; test: Intracellular calcium (Fluo-4 fluorescence) in cultured blood-brain barrier cells under simulated ischemia-reperfusion; type: cell-based; details: 20 μM KB-R7943 (reverse Na/Ca exchange inhibition), methanesulphonate
Description: FIG. 4 is a bar graph of data showing that when cerebral capillary endothelial cells are exposed to ischemic conditions, intracellular calcium concentration increases and remains elevated during reperfusion; the elevation in intracellular calcium is prevented by pharmacological inhibition of the Na/H antiporter. Cultured bovine blood-brain barrier cells were treated as described above (FIG. 2). […] The rise in intracellular calcium observed during reperfusion was prevented by inhibiting Na/H antiport (100 μM DMA). *P<0.05 compared to control. +P<0.05 compared to reperfusion. Values are mean±SD. Intracellular calcium was measured with fluorescent imaging, using Fluo-4.
FIG. 5 is a bar graph of data showing that when cerebral capillary endothelial cells are exposed to ischemic conditions, intracellular calcium concentration increases and remains elevated during reperfusion; the elevation in intracellular calcium is prevented by pharmacological inhibition of reverse movement of the Na/Ca exchanger. Cultured bovine blood-brain barrier cells were treated as described above (FIG. 2). […] The rise in intracellular calcium observed during reperfusion was prevented by inhibiting reverse movement of Na/Ca exchange (20 μM KB-R7943). *P<0.05 compared to control. +P<0.05 compared to reperfusion. Values are mean±SD. Intracellular calcium was measured with fluorescent imaging, using Fluo-4. […]

Na/Ca exchange = biological target: T1, Na/Ca exchange (Homo sapiens, UniProt P32418); details: cardiac and renal tissues (ref. 26); cited from earlier work
T1 construct: host or cells: cardiac and renal tissues (as cited)

heart and kidney = heart and kidney (refs. 29, 45); cited from earlier work

## CS(=O)(=O)O.N=C(N)SCCc1ccc(OCc2ccc([N+](=O)[O-])cc2)cc1 [KB-R7943, 2-[2-[4-(4-nitrobenzyloxy)phenyl]ethyl]isothiourea methanesulphonate]
[1]
  rise in intracellular calcium observed during reperfusion: prevented; also recorded: inhibits the rise in intracellular calcium
Na/Ca exchange
  direction selectivity of Na/Ca exchange inhibition: greater affinity for suppressing movement in the reverse direction
  effect on Na/Ca exchange: inhibits Na/Ca exchange
Heart and kidney
  cytoprotection under conditions of ischemia and reperfusion: cytoprotective

Source: patent US9532961B2, “Method and kit for administering γ-glutamyl-D-cysteine for the prevention of reperfusion injury following ischemic stroke” (Rosalind Franklin University of Medicine and Science, priority 2005, dated 2017)
